Assay: cytotoxicity
Assay type: cell-based

| SMILES | CC50 [µM] |
| --- | --- |
| CC1=CC[C@@H]2[C@]34CC[C@](O)(OC3)C(C)(C)[C@@H]4CC[C@@]2(C)[C@@]12Oc1cc(-c3cccnc3)oc(=O)c1[C@@H]2O [Compound 8, decaturin B] | > 100 |
| NC(=O)c1ncn([C@@H]2O[C@H](CO)[C@@H](O)[C@H]2O)n1 [Ribavirin] | > 100 |
